Measurements from the NIST ThermoML archive (doi:10.1016/j.jct.2017.07.014).

Legend:
[1] = molar heat capacity at constant pressure; xn = mol fraction of the nth substance listed; details: 102.6 kPa, Liquid, Large sample (1 g) DSC, x1 = 0.107
[2] = refractive index (other wavelength) (dimensionless); xn = mol fraction of the nth substance listed; details: 108 kPa, Liquid, Wavelength=632.8 nm, minimum deviation method

CCCCn1cc[n+](C)c1.F[P-](F)(F)(F)(F)F [1-butyl-3-methylimidazolium hexafluorophosphate] + CCO
[1]
Details | molar heat capacity at constant pressure [J/K/mol]
314.31 K | 176.72
314.64 K | 177.08
314.97 K | 177.44
315.29 K | 177.86
315.62 K | 178.15
315.94 K | 178.8
316.27 K | 179.08
316.59 K | 179.58
316.92 K | 179.87
317.24 K | 180.44
317.57 K | 180.87
317.89 K | 181.23
318.22 K | 181.8
318.55 K | 182.3
318.87 K | 182.66
319.19 K | 183.3
319.52 K | 183.87
319.85 K | 184.38
320.17 K | 184.88
320.5 K | 185.38
320.82 K | 186.02
321.15 K | 186.45
321.47 K | 187.09
321.8 K | 187.95
322.12 K | 188.6
322.45 K | 189.38
322.77 K | 190.17
323.1 K | 190.89
323.42 K | 191.96
323.75 K | 192.96
324.07 K | 194.61
324.4 K | 195.89
324.73 K | 198.26
325.05 K | 201.76
325.38 K | 205.34
325.7 K | 210.28
326.03 K | 181.08
326.35 K | 178.08
326.68 K | 176.79
327 K | 175.93
327.33 K | 175.36
327.65 K | 174.93
327.98 K | 174.57
328.31 K | 174.36
328.63 K | 174.29
328.96 K | 174.07
329.28 K | 173.93
329.61 K | 173.79
329.93 K | 173.72
330.26 K | 173.64
330.58 K | 173.57
330.91 K | 173.5
331.23 K | 173.43
331.56 K | 173.43
331.88 K | 173.43
332.21 K | 173.43
332.53 K | 173.29
332.86 K | 173.43
333.19 K | 173.43
333.51 K | 173.43
333.84 K | 173.36
334.16 K | 173.5
334.49 K | 173.57
334.81 K | 173.72
335.14 K | 173.86
335.46 K | 174.22
335.78 K | 173.72
336.09 K | 173.29
336.38 K | 173.07
336.76 K | 172.93
337.09 K | 172.79
337.41 K | 173.5
337.74 K | 174.07
338.06 K | 174.07
338.39 K | 174.14
338.72 K | 174.43
339.05 K | 174.22
339.35 K | 174.07
339.69 K | 174.72
340.04 K | 174.72
340.35 K | 175.07
340.66 K | 175.58
340.99 K | 175.29
341.32 K | 175.07
341.64 K | 175
341.98 K | 175.29
342.3 K | 174.93
342.6 K | 175.58
342.93 K | 175.43
343.26 K | 175.79
343.6 K | 175.65
343.91 K | 175.72
344.24 K | 175.72
344.56 K | 175.79
344.9 K | 175.86
345.21 K | 176.08
345.55 K | 175.93
345.87 K | 175.86
346.19 K | 176.15
346.54 K | 176.65
346.86 K | 176.43
347.17 K | 177.08
347.51 K | 176.72
347.82 K | 176.65
348.15 K | 176.79

[2]
Details | refractive index
315.21 K, x1 = 1 | 1.4038
317.26 K, x1 = 1 | 1.4032
319.23 K, x1 = 1 | 1.4027
320.24 K, x1 = 0.3 | 1.3841
320.24 K, x1 = 0.4 | 1.3889
320.24 K, x1 = 0.901 | 1.4008
320.25 K, x1 = 0.6 | 1.3951
320.25 K, x1 = 0.7 | 1.3973
320.26 K, x1 = 0.801 | 1.3992
320.27 K, x1 = 0.5 | 1.3923
321.27 K, x1 = 0.3 | 1.3838
321.27 K, x1 = 0.801 | 1.3989
321.27 K, x1 = 0.901 | 1.4005
321.28 K, x1 = 0.7 | 1.3971
321.29 K, x1 = 0.4 | 1.3886
321.29 K, x1 = 0.6 | 1.3949
321.35 K, x1 = 0.5 | 1.392
321.47 K, x1 = 1 | 1.4021
322.24 K, x1 = 0.3 | 1.3835
322.27 K, x1 = 0.7 | 1.3968
322.27 K, x1 = 0.901 | 1.4002
322.29 K, x1 = 0.4 | 1.3884
322.29 K, x1 = 0.5 | 1.3918
322.29 K, x1 = 0.6 | 1.3945
322.29 K, x1 = 0.801 | 1.3987
323.24 K, x1 = 0.901 | 1.4
323.25 K, x1 = 0.3 | 1.3832
323.27 K, x1 = 0.5 | 1.3915
323.28 K, x1 = 0.801 | 1.3984
323.3 K, x1 = 0.4 | 1.388
323.3 K, x1 = 0.6 | 1.3943
323.3 K, x1 = 0.7 | 1.3965
323.47 K, x1 = 1 | 1.4016
323.58 K, x1 = 0.2 | 1.3759
324.23 K, x1 = 0.801 | 1.3981
324.23 K, x1 = 0.901 | 1.3997
324.24 K, x1 = 0.7 | 1.3962
324.26 K, x1 = 0.3 | 1.3828
324.28 K, x1 = 0.4 | 1.3877
324.28 K, x1 = 0.6 | 1.394
324.3 K, x1 = 0.5 | 1.3912
324.56 K, x1 = 0.2 | 1.3756
325.26 K, x1 = 0.801 | 1.3979
325.28 K, x1 = 0.4 | 1.3874
325.28 K, x1 = 0.6 | 1.3938
325.31 K, x1 = 0.3 | 1.3825
325.31 K, x1 = 0.901 | 1.3994
325.32 K, x1 = 0.7 | 1.396
325.34 K, x1 = 0.5 | 1.3909
325.4 K, x1 = 1 | 1.4011
325.42 K, x1 = 0.1 | 1.3647
325.63 K, x1 = 0.2 | 1.3753
326.48 K, x1 = 0.4 | 1.387
326.51 K, x1 = 0.3 | 1.3822
326.58 K, x1 = 0.801 | 1.3975
326.59 K, x1 = 0.901 | 1.3991
326.6 K, x1 = 0.5 | 1.3905
326.6 K, x1 = 0.6 | 1.3934
326.61 K, x1 = 0.7 | 1.3956
326.64 K, x1 = 0.1 | 1.3643
327.05 K, x1 = 0.2 | 1.3748
327.64 K, x1 = 0.4 | 1.3867
327.65 K, x1 = 0.5 | 1.3902
327.67 K, x1 = 0.6 | 1.3931
327.73 K, x1 = 0.7 | 1.3953
327.75 K, x1 = 0.3 | 1.3817
327.86 K, x1 = 0.1 | 1.3639
327.91 K, x1 = 0.901 | 1.3987
327.93 K, x1 = 0.801 | 1.3972
328.27 K, x1 = 0.2 | 1.3744
328.91 K, x1 = 0.1 | 1.3636
329.44 K, x1 = 0.1 | 1.3634
